Assay results from ChEMBL document CHEMBL1909046, “DrugMatrix in vitro pharmacology data”.

Legend:
[1] = target: T1, 5-hydroxytryptamine receptor 2C (Homo sapiens, UniProt P28335); assay: DRUGMATRIX: Serotonin (5-Hydroxytryptamine) 5-HT2C radioligand binding (ligand: [3H] Mesulergine); format: cell membranes, CHO-K1, Membrane; settings: cho-k1; Not Active = under 50% inhibition at 10 µM
T1 sequence (P28335 whole entry): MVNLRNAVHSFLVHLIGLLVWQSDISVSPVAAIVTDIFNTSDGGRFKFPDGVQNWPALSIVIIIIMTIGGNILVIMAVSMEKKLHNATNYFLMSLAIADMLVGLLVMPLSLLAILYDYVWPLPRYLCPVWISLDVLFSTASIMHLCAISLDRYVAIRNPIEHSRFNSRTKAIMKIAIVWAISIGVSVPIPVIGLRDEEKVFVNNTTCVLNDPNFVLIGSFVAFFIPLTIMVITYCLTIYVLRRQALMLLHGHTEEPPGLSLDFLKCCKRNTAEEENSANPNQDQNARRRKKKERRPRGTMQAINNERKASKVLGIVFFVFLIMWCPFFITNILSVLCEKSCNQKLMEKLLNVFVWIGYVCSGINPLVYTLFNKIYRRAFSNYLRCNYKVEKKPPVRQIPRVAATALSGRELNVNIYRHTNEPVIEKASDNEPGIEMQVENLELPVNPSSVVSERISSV

[2] = DRUGMATRIX: Tumor Necrosis Factor (TNF), Non-Selective radioligand binding (ligand: [125I] TNF-alpha); format: cell membranes, Membrane; settings: u-937; Not Active = under 50% inhibition at 10 µM
[3] = target: Platelet-activating factor receptor (Homo sapiens, UniProt P25105); assay: biochemical; format: tissue-based; settings: platelet; also: in other assays of this panel Not Active means under 50% inhibition at 10 µM
[4] = target: T2, Angiotensin-converting enzyme (Oryctolagus cuniculus, UniProt P12822); format: tissue-based, Lung;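 also: enzymatic inhibition of angiotensin-converting enzyme measured with FAPGG as the substrate; in other assays of this panel Not Active means under 50% inhibition at 10 µM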
T2 sequence (P12822 whole entry): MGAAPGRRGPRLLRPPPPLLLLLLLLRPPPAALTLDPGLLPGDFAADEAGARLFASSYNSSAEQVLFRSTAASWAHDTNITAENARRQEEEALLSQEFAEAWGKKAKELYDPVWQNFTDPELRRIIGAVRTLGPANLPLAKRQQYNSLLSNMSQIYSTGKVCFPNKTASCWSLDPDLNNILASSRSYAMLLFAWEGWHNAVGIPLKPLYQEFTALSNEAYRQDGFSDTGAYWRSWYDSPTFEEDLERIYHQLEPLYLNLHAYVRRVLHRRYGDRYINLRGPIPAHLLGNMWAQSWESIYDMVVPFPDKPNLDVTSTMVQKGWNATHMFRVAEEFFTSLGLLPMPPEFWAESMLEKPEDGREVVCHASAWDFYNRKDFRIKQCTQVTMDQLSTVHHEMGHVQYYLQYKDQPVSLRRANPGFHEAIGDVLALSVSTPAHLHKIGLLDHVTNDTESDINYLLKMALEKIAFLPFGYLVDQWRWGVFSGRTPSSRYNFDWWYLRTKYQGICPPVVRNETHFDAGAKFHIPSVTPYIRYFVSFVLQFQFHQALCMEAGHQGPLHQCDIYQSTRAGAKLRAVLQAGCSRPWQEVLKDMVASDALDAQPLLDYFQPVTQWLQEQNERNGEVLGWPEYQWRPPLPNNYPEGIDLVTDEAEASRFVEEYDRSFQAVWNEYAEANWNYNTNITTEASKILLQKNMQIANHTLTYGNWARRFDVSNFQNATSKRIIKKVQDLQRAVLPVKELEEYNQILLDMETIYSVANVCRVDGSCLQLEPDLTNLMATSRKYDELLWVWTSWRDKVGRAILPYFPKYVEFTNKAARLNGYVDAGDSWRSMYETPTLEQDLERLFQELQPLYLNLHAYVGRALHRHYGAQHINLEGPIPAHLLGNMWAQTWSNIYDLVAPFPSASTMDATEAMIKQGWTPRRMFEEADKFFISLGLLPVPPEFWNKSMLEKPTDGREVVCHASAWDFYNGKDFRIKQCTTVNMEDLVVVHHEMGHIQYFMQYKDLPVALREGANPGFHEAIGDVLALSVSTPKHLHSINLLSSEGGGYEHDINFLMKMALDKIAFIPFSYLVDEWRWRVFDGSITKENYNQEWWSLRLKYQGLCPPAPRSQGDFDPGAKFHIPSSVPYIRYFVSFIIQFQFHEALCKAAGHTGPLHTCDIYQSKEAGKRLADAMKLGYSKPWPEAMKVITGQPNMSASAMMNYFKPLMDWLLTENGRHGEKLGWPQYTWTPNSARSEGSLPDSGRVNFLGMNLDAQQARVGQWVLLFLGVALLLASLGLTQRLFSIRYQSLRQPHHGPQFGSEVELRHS

[5] = target: Protein kinase C alpha type (Homo sapiens, UniProt P17252); format: cell-based; settings: sf9;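 also: inhibition of PKCalpha kinase activity measured in an enzyme assay with histone as the phosphorylation substrate; in other assays of this panel Not Active means under 50% inhibition at 10 µM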
[6] = target: T3, 5-hydroxytryptamine receptor 1A (Rattus norvegicus, UniProt P19327); format: cell membranes, CHO-K1, Membrane; settings: cho-k1; also: in other assays of this panel Not Active means under 50% inhibition at 10 µM
T3 sequence (P19327 whole entry): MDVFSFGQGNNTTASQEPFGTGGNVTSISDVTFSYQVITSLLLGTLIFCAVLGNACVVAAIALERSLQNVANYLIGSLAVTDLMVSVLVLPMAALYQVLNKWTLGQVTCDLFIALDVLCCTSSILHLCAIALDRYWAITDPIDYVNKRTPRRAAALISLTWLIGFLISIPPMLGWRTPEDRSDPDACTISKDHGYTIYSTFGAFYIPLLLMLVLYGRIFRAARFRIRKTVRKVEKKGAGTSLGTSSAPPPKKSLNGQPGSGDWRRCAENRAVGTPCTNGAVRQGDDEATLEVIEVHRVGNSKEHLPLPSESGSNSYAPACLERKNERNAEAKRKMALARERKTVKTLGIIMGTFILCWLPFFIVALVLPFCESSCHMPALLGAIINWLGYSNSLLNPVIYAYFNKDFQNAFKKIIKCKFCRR

Platelet-activating factor receptor, sequence (P25105 whole entry): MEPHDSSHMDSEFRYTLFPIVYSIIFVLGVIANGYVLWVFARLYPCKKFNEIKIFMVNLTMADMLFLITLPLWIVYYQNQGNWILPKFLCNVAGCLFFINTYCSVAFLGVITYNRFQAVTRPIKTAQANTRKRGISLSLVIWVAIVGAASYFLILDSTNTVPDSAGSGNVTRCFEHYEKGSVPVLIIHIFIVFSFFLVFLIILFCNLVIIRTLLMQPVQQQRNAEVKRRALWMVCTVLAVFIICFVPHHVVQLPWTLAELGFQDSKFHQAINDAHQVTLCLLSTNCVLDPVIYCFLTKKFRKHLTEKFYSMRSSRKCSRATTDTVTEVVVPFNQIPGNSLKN

CCC[C@@H]1C[C@@H](C(=O)N[C@@H]([C@H]2O[C@H](SC)[C@H](O)[C@@H](O)[C@H]2O)[C@H](C)Cl)N(C)C1 [CLINDAMYCIN]
Not Active: IC50 [1] | IC50 [2] | Ki [2] | IC50 [3] | IC50 [4] | IC50 [5] | IC50 [6]

CC(=O)O[C@]1(C(C)=O)CC[C@H]2[C@@H]3C=C(Cl)C4=CC(=O)[C@@H]5C[C@@H]5[C@]4(C)[C@H]3CC[C@@]21C [CYPROTERONE ACETATE]
Not Active: IC50 [1] | IC50 [2] | Ki [2] | IC50 [3] | IC50 [4] | IC50 [5] | IC50 [6]

CN(Cc1cnc2nc(N)nc(N)c2n1)c1ccc(C(=O)N[C@@H](CCC(=O)O)C(=O)O)cc1 [METHOTREXATE]
Not Active: IC50 [1] | IC50 [2] | Ki [2] | IC50 [3] | IC50 [4] | IC50 [5] | IC50 [6]

C/C=C\c1ccc(O)c(OC)c1 [ISOEUGENOL]
Not Active: IC50 [1] | IC50 [2] | Ki [2] | IC50 [3] | IC50 [4] | IC50 [5] | IC50 [6]

Cc1cnc(C(=O)NCCc2ccc(S(=O)(=O)NC(=O)NC3CCCCC3)cc2)cn1 [GLIPIZIDE]
Not Active: IC50 [1] | IC50 [2] | Ki [2] | IC50 [3] | IC50 [4] | IC50 [5] | IC50 [6]

CC(CCc1ccc(O)cc1)NCCc1ccc(O)c(O)c1 (centres undefined) [DOBUTAMINE]
Not Active: IC50 [1] | IC50 [2] | Ki [2] | IC50 [3] | IC50 [4] | IC50 [5] | IC50 [6]

Nc1nc(Cl)nc2c1ncn2[C@H]1C[C@H](O)[C@@H](CO)O1 [CLADRIBINE]
Not Active: IC50 [1] | IC50 [2] | Ki [2] | IC50 [3] | IC50 [4] | IC50 [5] | IC50 [6]

Cc1cccc(Nc2cc(Cl)nc(SCC(=O)O)n2)c1C [PIRINIXIC ACID]
Not Active: IC50 [1] | IC50 [2] | Ki [2] | IC50 [3] | IC50 [4] | IC50 [5] | IC50 [6]

INSULIN HUMAN
Not Active: IC50 [1] | Ki [1] | IC50 [2] | Ki [2] | IC50 [3] | Ki [3] | IC50 [4] | Ki [4] | IC50 [5] | Ki [5] | IC50 [6] | Ki [6]

CCn1cc(C(=O)O)c(=O)c2cc(F)c(N3CCNCC3)nc21 [ENOXACIN]
Not Active: IC50 [1] | IC50 [2] | Ki [2] | IC50 [3] | IC50 [4] | IC50 [5] | IC50 [6]

O=C(O)c1cc(=O)c2c(OCC(O)COc3cccc4oc(C(=O)O)cc(=O)c34)cccc2o1 [CROMOLYN]
Not Active: IC50 [1] | IC50 [2] | Ki [2] | IC50 [3] | IC50 [4] | IC50 [5] | IC50 [6]

CC(=O)OCC(CCn1cnc2cnc(N)nc21)COC(C)=O [FAMCICLOVIR]
Not Active: IC50 [1] | IC50 [2] | Ki [2] | IC50 [3] | IC50 [4] | IC50 [5] | IC50 [6]

O=P1(N(CCCl)CCCl)NCCCO1 (centres undefined) [CYCLOPHOSPHAMIDE ANHYDROUS]
Not Active: IC50 [1] | IC50 [2] | Ki [2] | IC50 [3] | IC50 [4] | IC50 [5] | IC50 [6]

O=c1cc(-c2ccccc2)oc2ccc3ccccc3c12 [BETA-NAPHTHOFLAVONE]
Not Active: IC50 [1] | IC50 [2] | Ki [2] | IC50 [3] | IC50 [4] | IC50 [5] | IC50 [6]

CC(C)(Sc1cc(C(C)(C)C)c(O)c(C(C)(C)C)c1)Sc1cc(C(C)(C)C)c(O)c(C(C)(C)C)c1 [PROBUCOL]
Not Active: IC50 [1] | IC50 [2] | Ki [2] | IC50 [3] | IC50 [4] | IC50 [5] | IC50 [6]

CO[C@@]1(NC(=O)CSCC#N)C(=O)N2C(C(=O)O)=C(CSc3nnnn3C)CS[C@@H]21 [CEFMETAZOLE]
Not Active: IC50 [1] | IC50 [2] | Ki [2] | IC50 [3] | IC50 [4] | IC50 [5] | IC50 [6]

CC(=O)O[C@]1(C(C)=O)CC[C@H]2[C@@H]3C=C(C)C4=CC(=O)CC[C@]4(C)[C@H]3CC[C@@]21C [MEGESTROL ACETATE]
Not Active: IC50 [1] | IC50 [2] | Ki [2] | IC50 [3] | IC50 [4] | IC50 [5] | IC50 [6]

COc1cc(CNC(=O)CCCC/C=C/C(C)C)ccc1O [CAPSAICIN]
Not Active: IC50 [1] | IC50 [2] | Ki [2] | IC50 [3] | IC50 [4] | IC50 [5] | IC50 [6]

CC(C)(C)c1ccc(S(=O)(=O)/C=C/C#N)cc1 [BAY-11-7085]
Not Active: IC50 [1] | IC50 [2] | Ki [2] | IC50 [3] | IC50 [4] | IC50 [5] | IC50 [6]

CC[C@H](C)C(=O)O[C@H]1C[C@@H](C)C=C2C=C[C@H](C)[C@H](CC[C@@H]3C[C@@H](O)CC(=O)O3)[C@H]21 [LOVASTATIN]
Not Active: IC50 [1] | IC50 [2] | Ki [2] | IC50 [3] | IC50 [4] | IC50 [5] | IC50 [6]

O=C(c1ccccc1Cl)N1CCC(Cc2ccccc2)CC1
Not Active: IC50 [1] | IC50 [2] | Ki [2] | IC50 [3] | IC50 [4] | IC50 [5] | IC50 [6]

CC[C@H]1OC(=O)[C@H](C)[C@@H](O[C@H]2C[C@@](C)(OC)[C@@H](O)[C@H](C)O2)[C@H](C)[C@@H](O[C@@H]2O[C@H](C)C[C@H](N(C)C)[C@H]2O)[C@](C)(O)C[C@@H](C)CN(C)[C@H](C)[C@@H](O)[C@]1(C)O [AZITHROMYCIN]
Not Active: IC50 [1] | IC50 [2] | Ki [2] | IC50 [3] | IC50 [4] | IC50 [5] | IC50 [6]
